Measurements reported in US12202843B2, “Muscarinic receptor agonists” (Nxera Pharma UK Limited, priority 2014, dated 2025).

Legend:
Assay type in all cases: cell-based
[1] = biological target: T1, human muscarinic M4 receptor (Homo sapiens, UniProt P08173); experiment: Alphascreen Surefire phospho-ERK1/2 functional assay, M4; conditions: for EC50: CHO cells stably expressing human M4, read-out: pEC50 M4 (converted); for Emax: CHO, read-out: % Emax cf. ACh, M4, CHO cells stably expressing human M4, relative to ACh; for % Emax cf. ACh, M4: CHO cells stably expressing human M4, relative to ACh
T1 construct: expressed in transfected cells
T1 sequence (P08173 1-479): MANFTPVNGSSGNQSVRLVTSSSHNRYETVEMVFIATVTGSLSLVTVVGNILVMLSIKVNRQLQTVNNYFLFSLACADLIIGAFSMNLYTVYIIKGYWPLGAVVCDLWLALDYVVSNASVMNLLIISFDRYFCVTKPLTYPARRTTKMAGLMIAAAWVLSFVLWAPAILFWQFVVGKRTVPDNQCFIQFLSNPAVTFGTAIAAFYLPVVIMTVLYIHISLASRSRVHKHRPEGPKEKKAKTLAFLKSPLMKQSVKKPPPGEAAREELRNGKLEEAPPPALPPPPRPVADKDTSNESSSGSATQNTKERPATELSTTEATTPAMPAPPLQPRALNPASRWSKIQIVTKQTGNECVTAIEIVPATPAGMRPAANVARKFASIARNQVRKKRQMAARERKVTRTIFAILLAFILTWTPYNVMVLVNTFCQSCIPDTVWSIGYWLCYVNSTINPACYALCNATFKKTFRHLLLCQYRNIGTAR

[2] = biological target: T2, human muscarinic M2 receptor (Homo sapiens, UniProt P08172); experiment: Alphascreen Surefire phospho-ERK1/2 functional assay, M2; conditions: for EC50: CHO cells stably expressing human M2, read-out: pEC50 M2 (converted); for Emax: CHO, read-out: % Emax cf. ACh, M2, CHO cells stably expressing human M2, relative to ACh; for % Emax cf. ACh, M2: CHO cells stably expressing human M2, relative to ACh
T2 sequence (P08172 1-466): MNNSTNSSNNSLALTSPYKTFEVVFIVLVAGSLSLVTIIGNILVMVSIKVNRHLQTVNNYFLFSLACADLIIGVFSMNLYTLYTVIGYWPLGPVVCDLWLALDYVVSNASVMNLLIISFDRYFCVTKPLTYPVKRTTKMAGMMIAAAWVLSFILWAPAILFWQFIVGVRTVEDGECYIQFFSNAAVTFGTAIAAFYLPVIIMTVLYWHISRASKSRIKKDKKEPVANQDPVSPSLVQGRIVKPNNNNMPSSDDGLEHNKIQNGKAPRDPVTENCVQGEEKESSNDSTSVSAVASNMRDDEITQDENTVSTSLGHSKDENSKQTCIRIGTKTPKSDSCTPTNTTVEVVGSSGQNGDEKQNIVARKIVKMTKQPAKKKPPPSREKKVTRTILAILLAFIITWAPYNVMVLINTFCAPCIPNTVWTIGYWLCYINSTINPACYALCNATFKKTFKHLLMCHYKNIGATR
Protocol: (§1) ERK1/2 phosphorylation is a downstream consequence of both Gq/11 and Gi/o protein coupled receptor activation, making it highly suitable for the assessment of M1, M3 (Gq/11 coupled) and M2, M4 receptors (Gi/o coupled), rather than using different assay formats for different receptor subtypes. CHO cells stably expressing the human muscarinic M1, M2, M3 or M4 receptor were plated (25K/well) onto 96-well tissue culture plates in MEM-alpha+10% dialysed FBS. Once adhered, cells were serum-starved overnight. Agonist stimulation was performed by the addition of 5 μL agonist to the cells for 5 min (37° C.). Media was removed and 50 μL of lysis buffer added. […] Plates were incubated for 2 h with gentle agitation in the dark and then read on a PHERAstar plate reader.
(§2) pEC50 and Emax figures were calculated from the resulting data for each receptor subtype.

[3] = biological target: T3, human muscarinic M1 receptor (Homo sapiens, UniProt P11229); experiment: Alphascreen Surefire phospho-ERK1/2 functional assay, M1; conditions: for EC50: CHO cells stably expressing human M1, read-out: pEC50 M1 (converted); for Emax: CHO, read-out: % Emax cf. ACh, M1, CHO cells stably expressing human M1, relative to ACh; for % Emax cf. ACh, M1: CHO cells stably expressing human M1, relative to ACh
T3 sequence (P11229 1-460): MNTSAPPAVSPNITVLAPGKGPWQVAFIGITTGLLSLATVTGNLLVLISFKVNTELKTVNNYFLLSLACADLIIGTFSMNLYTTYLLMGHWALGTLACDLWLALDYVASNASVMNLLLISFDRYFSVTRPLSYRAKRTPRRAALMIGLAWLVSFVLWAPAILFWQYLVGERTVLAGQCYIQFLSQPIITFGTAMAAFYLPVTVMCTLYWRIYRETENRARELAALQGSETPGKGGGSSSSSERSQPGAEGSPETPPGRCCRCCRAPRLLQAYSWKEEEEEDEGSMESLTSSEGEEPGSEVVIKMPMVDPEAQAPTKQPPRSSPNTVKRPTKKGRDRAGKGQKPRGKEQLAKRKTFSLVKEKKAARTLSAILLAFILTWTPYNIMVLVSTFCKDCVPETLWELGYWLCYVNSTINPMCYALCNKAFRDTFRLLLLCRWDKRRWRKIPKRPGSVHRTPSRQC

[4] = biological target: T4, human muscarinic M3 receptor (Homo sapiens, UniProt P20309); experiment: Alphascreen Surefire phospho-ERK1/2 functional assay, M3; conditions: for EC50: CHO cells stably expressing human M3, read-out: pEC50 M3 (converted); for % Emax cf. ACh, M3: CHO cells stably expressing human M3, relative to ACh; for Emax: CHO, read-out: % Emax cf. ACh, M3, CHO cells stably expressing human M3, relative to ACh
T4 construct: expressed in transfected cells
T4 sequence (P20309 whole entry): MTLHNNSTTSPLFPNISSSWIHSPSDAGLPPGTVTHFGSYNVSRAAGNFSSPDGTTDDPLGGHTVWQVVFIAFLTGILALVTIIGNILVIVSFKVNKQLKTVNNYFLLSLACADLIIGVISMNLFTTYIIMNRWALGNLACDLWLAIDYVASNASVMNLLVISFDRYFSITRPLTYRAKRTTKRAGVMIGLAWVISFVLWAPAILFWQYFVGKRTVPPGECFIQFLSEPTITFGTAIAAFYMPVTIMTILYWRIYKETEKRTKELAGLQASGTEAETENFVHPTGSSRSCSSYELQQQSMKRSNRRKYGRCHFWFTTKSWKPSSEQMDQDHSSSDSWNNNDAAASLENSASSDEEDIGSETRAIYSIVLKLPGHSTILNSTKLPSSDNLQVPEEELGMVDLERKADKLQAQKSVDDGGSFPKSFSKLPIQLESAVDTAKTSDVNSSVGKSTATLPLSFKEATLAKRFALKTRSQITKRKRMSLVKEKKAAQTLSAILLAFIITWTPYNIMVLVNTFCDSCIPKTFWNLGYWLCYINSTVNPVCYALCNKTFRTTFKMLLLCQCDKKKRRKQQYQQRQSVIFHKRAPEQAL
Protocol: as §1, §2

## [2H]C([2H])([2H])C([2H])([2H])OC(=O)N1C2CCC1CC(N1CCC3(CC1)CNC(=O)C3)C2 (single isomer, unassigned) [Example 2-32 Isomer 1]
[1]
  EC50: 0.126 µM
  Emax: 40%
[2]
  EC50: > 20 µM
  Emax: 16%
[3]
  EC50: 0.0794 µM
  Emax: 92%
[4]
  EC50: > 20 µM
[4]; listed as 2-32 Isomer 1
  % Emax cf. ACh, M3: 10%

## CCOC(=O)N1CC2CC(N3CCC4(CC3)CNC(=O)C4)CC1C2 (single isomer, unassigned) [Example 6-2 Isomer 2]
[1]
  EC50: 0.00398 µM
  Emax: 78%
[2]
  EC50: 0.0158 µM
  Emax: 30%
[3]
  EC50: 0.002 µM
  Emax: 118%
[4]
  EC50: > 20 µM
  Emax: 18%

## O=C1CC2(CCN(C3CC4CCC(C3)N4C(=O)OCCF)CC2)CN1 (single isomer, unassigned) [Example 2-3 Isomer 2]
[1]
  EC50: > 20 µM
[1]; listed as 2-3 Isomer 2
  % Emax cf. ACh, M4: 16%
[2]
  EC50: > 20 µM
  Emax: 4%
[3]
  EC50: 0.0794 µM
[3]; listed as 2-3 Isomer 2
  % Emax cf. ACh, M1: 49%
[4]
  EC50: > 20 µM
  Emax: 0%

## CCOC(=O)N1CC2CCC1CC2N1CCC2(CC1)CNC(=O)C2 (single isomer, unassigned) [Example 3-1 Isomer 2, ethyl 5-(3-oxo-2,8-diazaspiro[4.5]dec-8-yl)-2-azabicyclo[2.2.2]octane-2-carboxylate]
[1]
  EC50: 0.251 µM
[1]; listed as 3-1 Isomer 2
  % Emax cf. ACh, M4: 31%
[2]
  EC50: > 20 µM
[2]; listed as 3-1 Isomer 2
  % Emax cf. ACh, M2: 11%
[3]
  EC50: 0.0631 µM
[3]; listed as 3-1 Isomer 2
  % Emax cf. ACh, M1: 94%
[4]; listed as 3-1 Isomer 2
  % Emax cf. ACh, M3: 1%

## [2H]C([2H])([2H])C([2H])([2H])OC(=O)N1C2CCC1CC(N1CCC3(CC1)CNC(=O)C3)C2 (single isomer, unassigned) [Example 2-32 Isomer 2]
[1]
  EC50: 0.0501 µM
  % Emax cf. ACh, M4: 48%
[2]
  % Emax cf. ACh, M2: 15%
[3]
  EC50: 0.0316 µM
  % Emax cf. ACh, M1: 77%
[4]; listed as 2-32 Isomer 2
  % Emax cf. ACh, M3: 1%

## CCOC(=O)N1CC2CC(N3CCC4(CC3)CNC(=O)O4)CC1C2 (single isomer, unassigned) [Example 6-3 Isomer 2]
[1]
  EC50: 0.0398 µM
  Emax: 81%
[2]
  EC50: 1.26 µM
  Emax: 24%
[3]
  EC50: 0.0251 µM
  Emax: 112%
[4]
  EC50: > 20 µM
  Emax: 48%

## CCOC(=O)N1C2CCC1CC(N1CCC3(CC1)OC(=O)NC3CC)C2 (single isomer, unassigned) [Example 2-16 Isomer 1]
[1]
  EC50: 0.0794 µM
[1]; listed as 2-16 Isomer 1
  % Emax cf. ACh, M4: 19%
[2]
  EC50: > 20 µM
  Emax: 3%
[3]
  EC50: 0.0501 µM
[3]; listed as 2-16 Isomer 1
  % Emax cf. ACh, M1: 36%
[4]
  EC50: > 20 µM
  Emax: 9%

## CCOC(=O)N1CC2CCC1CC2N1CCC2(CC1)CNC(=O)C2 (single isomer, unassigned) [Example 3-1 Isomer 1, ethyl 5-(3-oxo-2,8-diazaspiro[4.5]dec-8-yl)-2-azabicyclo[2.2.2]octane-2-carboxylate]
[1]
  EC50: 0.00398 µM
[1]; listed as 3-1 Isomer 1
  % Emax cf. ACh, M4: 61%
[2]
  EC50: 0.01 µM
[2]; listed as 3-1 Isomer 1
  % Emax cf. ACh, M2: 63%
[3]
  EC50: 0.00126 µM
[3]; listed as 3-1 Isomer 1
  % Emax cf. ACh, M1: 111%
[4]
  EC50: > 20 µM
[4]; listed as 3-1 Isomer 1
  % Emax cf. ACh, M3: 6%

## CCOC(=O)N1C2CCC1CC(N1CCC3(CC1)OC(=O)NC3C(C)C)C2 (single isomer, unassigned) [Example 2-17 Isomer 2]
[1]
  EC50: 0.1 µM
[1]; listed as 2-17 Isomer 2
  % Emax cf. ACh, M4: 72%
[2]
  % Emax cf. ACh, M2: 3%
[3]
  EC50: 0.2 µM
[3]; listed as 2-17 Isomer 2
  % Emax cf. ACh, M1: 117%
[4]; listed as 2-17 Isomer 2
  % Emax cf. ACh, M3: 12%

## COC(=O)N1CC2CC(N3CCC4(CC3)CNC(=O)C4)CC1C2 (single isomer, unassigned) [Example 6-1 Isomer 2]
[1]
  EC50: 0.0631 µM
  % Emax cf. ACh, M4: 33%
[2]
  EC50: > 20 µM
  Emax: 18%
[3]
  EC50: 0.02 µM
[3]; listed as 6-1 Isomer 2
  % Emax cf. ACh, M1: 104%
[4]
  EC50: > 20 µM
  Emax: 5%

## CCOC(=O)N1C2CCC1CC(N1CCC3(CC1)OC(=O)NC3C(C)C)C2 (single isomer, unassigned) [Example 2-17 Isomer 1]
[1]
  EC50: 0.02 µM
[1]; listed as 2-17 Isomer 1
  % Emax cf. ACh, M4: 25%
[2]
  EC50: > 20 µM
  Emax: 2%
[3]
  EC50: 0.0316 µM
[3]; listed as 2-17 Isomer 1
  % Emax cf. ACh, M1: 58%
[4]
  EC50: > 20 µM
[4]; listed as 2-17 Isomer 1
  % Emax cf. ACh, M3: 51%

## CCCC1NC(=O)CC12CCN(C1CC3CCC(C1)N3C(=O)OCC)CC2 (single isomer, unassigned) [Example 2-9 Isomer 1]
[1]
  EC50: 0.00251 µM
  Emax: 78%
[2]
  EC50: > 20 µM
  Emax: 2%
[3]
  EC50: 0.00501 µM
  Emax: 91%
[4]
  EC50: > 20 µM
  Emax: 22%

## CCOC(=O)N1C2CCC1CC(N1CCC3(CC1)CNC(=O)O3)C2 (single isomer, unassigned) [Example 2-14 Isomer 2]
[1]
  EC50: 0.0794 µM
  % Emax cf. ACh, M4: 60%
[2]
  EC50: > 20 µM
  Emax: 0%
[3]
  EC50: 0.0398 µM
  % Emax cf. ACh, M1: 92%
[4]
  EC50: > 20 µM
  Emax: 0%

## CCOC(=O)N1C2CC[C@@H]1C[C@H](N1CCC3(CC1)CC(=O)N(O)C3)C2 [Example 2-24, ethyl (3-endo)-3-(2-hydroxy-3-oxo-2,8-diazaspiro[4.5]dec-8-yl)-8-azabicyclo[3.2.1]octane-8-carboxylate]
[1]
  EC50: > 20 µM
  Emax: 29%
[2]
  EC50: > 20 µM
  Emax: 4%
[3]
  EC50: 0.0631 µM
  Emax: 88%
[4]
  EC50: > 20 µM
  Emax: 4%
